In patent publication US8242148B2 (priority 2005, dated 2012):
“Also recorded” adds a separate entry of the source. Counter-ions that a name gives are not always drawn. Like-named read-outs stand apart in the source and are kept apart here.

What was measured:
[1] = Plasma pharmacokinetics of 2-pyridylacetic acid after betahistine hydrochloride (LC/MS/MS); settings: for Terminal elimination rate / Cmax: mean ± SD; for AUC(0-t) / Tmax / half-life / Cmax: plasma
Procedure: Blood samples for pharmacokinetic analysis were collected just prior to study drug dosing, and at 0.5, 1, 1.5, 2, 3, and 4 hours. Samples (5 ml) were collected in tubes containing EDTA and were placed on ice after gentle shaking. Samples were centrifuged within 15 min at 4° C. at 3000×g for 10 min and plasma was separated into polypropylene tubes. Plasma was stored at −70° C. until further analysis.
Plasma samples were analyzed using a validated liquid chromatography tandem mass spectroscopy (LC/MS/MS) as reported by Chen et al. with minor modifications. To 500 μL of plasma, 100 μL of 0.5 M orthophosphoric acid (H3PO4) was added. The mixed sample was extracted with 5 ml of ethyl acetate and 2-propanol mixture (97.5:2.5, v/v) and vortex-mixed thoroughly for 1 min. Sample was centrifuged at 2000×g for 10 min maintained at 4° C., the upper clear portion was carefully transferred to a glass tube and evaporated to dryness under nitrogen gas at 25° C. The residue was reconstituted with 100 μL of mobile phase and filtered using a Sep-pak® (Waters) SPE cartridges which was pre-equilibrated with mobile phase. The processed samples were analyzed using a liquid chromatography equipped with a Surveyor autosampler model Plus and a Surveyor quaternary gradient HPLC-pump (Thermo Fisher Scientific) connected to a linear ion trap-Fourier Transform LTQ-FT™ mass spectrometer operated in positive ion electrospray mode.
Plasma concentration-time profile data were used to calculate Cmax, time to achieve Cmax (Tmax), terminal elimination half-life (T1/2), area under the plasma concentration-time curve from zero to last measurable time point (AUC0-t). The half life (T1/2) was calculated as 0.693/λz, where λz is the terminal-phase elimination rate constant. AUC0-t was calculated using the linear trapezoidal rule area under the curve (AUC0-t) from time zero to the time of the last measurable concentration (CT) at 4 hrs (last measurable time point).

[2] = tested on: histamine release in the anterior hypothalamus; settings: rats; cited from earlier work
HPA axis [3] = settings: mice; cited from earlier work
[4] = tested on: histamine H3 autoreceptors; settings: cats, oral, cited from earlier work
ADHD adults [5] = experiment: ECG parameters (QT, QTc) after single-dose betahistine in ADHD adults; assay type: in vivo, human; settings: for QT Baseline / QTc Baseline: baseline (pre-dose); for QT 2 hours / QTc 2 hours: 2 hours post-dose
Text: (§1) Subjects were randomly assigned to active drug, dose, and/or placebo using a modified Latin Square design. Safety measures, including vital signs, electrocardiogram, peak respiratory flow, clinical laboratory tests, and logging of adverse events were observed.
(§2) Those AEs which accounted for >10% of the total were headache (n=11), fatigue (n=8), somnolence (n=8) and dizziness (n=4). […] The ECG data is summarized in Table 1 and categorized as benign.
Throughout the study, two subjects experienced a conversion of their baseline ECG from normal to abnormal but not clinically significant two hours following a dose of study drug betahistine. […] Each of these abnormal ECGs were not repeated in these same subjects with other doses of betahistine.

[6] = tested on: adult human subjects having ADHD; settings: in vivo
Text: as §1
There were 39 total adverse events (AEs) across 16 total subjects, of which 12/16 accounted for all 39 reports. Only 16/39 AEs were rated as moderate in severity. […] Of the 39 total AEs, 21/39 were judged by the investigator to be possibly related to study drug based primarily on proximity (within 3 hours) to study drug administration. Only 3/39 AEs were judged as probably related to study drug and consisted of orthostasis, drowsiness and agitation. All adverse events resolved within 24 hours of the visit and most resolved by the end of each study visit (each visit lasting 5-6 hours). One subject experienced orthostatic hypotension at 1 hour following study drug administration on two separate occasions (Visit 1 (rated as mild) and Visit 3 (rated as moderate), the later judged to be probably study drug-related.
as §2

ADHD adults [7] = experiment: Heart rate and blood pressure change from baseline; assay type: in vivo, human
Text: as §1
Changes from baseline in heart rate and BP were not dose dependent, nor were changes in these cardiovascular parameters by dose appreciably different from the placebo condition.

ADHD adults [8] = experiment: Pulmonary function (forced expiratory volume); assay type: in vivo, human
Procedure: as §1
All pulmonary function readings were analyzed by a board certified pulmonologist and no report was rated clinically significant.

ADHD adults [9] = experiment: Continuous Performance Task (CPT) signal detection, A prime and B prime; assay type: in vivo, human
Text: Subjects were randomly assigned to active drug, dose, and/or placebo using a modified Latin Square design. Safety measures, including vital signs, electrocardiogram, peak respiratory flow, clinical laboratory tests, and logging of adverse events were observed. […] Instead, the study used surrogate markers of ADHD efficacy which are widely accepted, such as the signal detection (A prime) measures from the Continuous Performance Task (CPT) and a Go-no-Go task. Improvements or enhanced signal detection for either of these tasks track well with clinical improvements measuring ADHD symptom severity and frequency. (Epstein et al., Relations Between Continuous Performance Test Performance Measures and ADHD Behaviors, J. of Abnormal Child Psych. 31:5, 543-54 (2001)). […] To reflect this design, the study was analyzed using a repeated-measures analysis of variance (ANOVA) model (in SAS version 9.2, using the MIXED procedure). Treatment (4 levels: 0, 50, 100, 200) and Period (3 levels) and their interaction were included as fixed within-subject factors. In the case of signal detection measures, measures over three repeated blocks in each of three sessions were averaged to produce a summary measure for that session. Sessions were performed prior to drug administration and at two and four hours post-administration. A third within-subject factor (time since drug administration in hours; 0, 2, and 4 hours) was included along with its interactions with the treatment and period effects. A compound-symmetry structure was assumed for the correlation pattern of the within-subject residuals (equivalent to allowing each subject to have an individual intercept term to account for correlation among repeat measures on the same subject). Principle hypothesis tests were comparisons of the average of the non-zero doses against the placebo, as well as comparisons of each individual non-zero dose versus placebo. These were performed as linear contrasts, two-sided, α=0.05.

ADHD adults [10] = experiment: Satiety Quotient (surrogate marker of appetite suppression); assay type: in vivo, human; settings: RMANOVA, treatment 0, 50, 100, 200 mg
Text: Instead, the study used surrogate markers of ADHD efficacy which are widely accepted, such as the signal detection (A prime) measures from the Continuous Performance Task (CPT) and a Go-no-Go task. Improvements or enhanced signal detection for either of these tasks track well with clinical improvements measuring ADHD symptom severity and frequency. (Epstein et al., Relations Between Continuous Performance Test Performance Measures and ADHD Behaviors, J. of Abnormal Child Psych. 31:5, 543-54 (2001)). […] To reflect this design, the study was analyzed using a repeated-measures analysis of variance (ANOVA) model (in SAS version 9.2, using the MIXED procedure). Treatment (4 levels: 0, 50, 100, 200) and Period (3 levels) and their interaction were included as fixed within-subject factors.

HPA axis [11] = experiment: Cortisol response / HPA axis activity in rats; assay type: in vivo, rat
Text: Certain subtypes of depression have been associated with decreased function of the hypothalamic-pituitary-adrenal (HPA) axis as evidenced by low cortisol and/or decreased CRH and ACTH levels.

[12] = humans, cited from earlier work
healthy volunteers = settings: cited from earlier work
rats = settings: cited from earlier work
[13] = animal studies, peripheral administration; cited from earlier work
[14] = tested on: patients with multiple sclerosis; settings: cited from earlier work
[15] = tested on: patients with cerebrovascular dementia; settings: placebo-controlled trials; cited from earlier work
[16] = after 100 mg betahistine hydrochloride
[17] = RMANOVA, treatment 0, 50, 100, 200 mg
[18] = RMANOVA, treatment 0, 50, 100, 200 mg, DF 3/29

O=C(O)Cc1ccccn1 [2-pyridylacetic acid]
Half-life and Tmax across the dose levels ([1]; 50, 100, 200 mg betahistine): remained unchanged | Terminal elimination rate ([1]; after 50 mg betahistine hydrochloride): 0.43 ± 0.35 h⁻¹ | Terminal elimination rate [1, 16]: 0.25 ± 0.18 h⁻¹ | Terminal elimination rate ([1]; after 200 mg betahistine hydrochloride): 0.28 ± 0.17 h⁻¹ | AUC(0-t) ([1]; human, 50 mg): 1300 ± 587 ng·h/mL | Tmax ([1]; human, 50 mg): 1.55 ± 0.44 h | half-life ([1]; human, 50 mg): 4.24 ± 1.68 h | Cmax ([1]; human, 50 mg, Cmax, after 50 mg betahistine hydrochloride): 611 ± 490 ng/mL | AUC(0-t) ([1]; human, 100 mg): 2780 ± 1840 ng·h/mL | Tmax ([1]; human, 100 mg): 1.3 ± 0.35 h | half-life ([1]; human, 100 mg): 3.74 ± 1.97 h | Cmax ([1]; human, 100 mg, Cmax, after 100 mg betahistine hydrochloride): 1040 ± 673 ng/mL | AUC(0-t) ([1]; human, 200 mg): 5250 ± 2430 ng·h/mL | Tmax ([1]; human, 200 mg): 2.05 ± 0.86 h | half-life ([1]; human, 200 mg): 3.88 ± 3.38 h | Cmax ([1]; human, 200 mg, Cmax, after 200 mg betahistine hydrochloride): 2040 ± 905 ng/mL | Cmax [1, 16]: 1043.88 ± 673.49 ng/mL

NC(=O)C[S+]([O-])C(c1ccccc1)c1ccccc1 (centres unmarked) [modafinil]
Hypothalamic histamine release [2]: increase hypothalamic histamine release

NNCCc1ccccc1 [phenelzine]
Cortisol levels (HPA axis [3]): increases cortisol levels

CNCCc1ccccn1 [betahistine dihydrochloride]
Dose required for rapid biological effect on histamine H3 autoreceptors ([4]; relative to human-equivalent 24-48 mg/day): 5 fold and 10 fold higher equivalent doses were required

CNCCc1ccccn1 [betahistine]
ECG data, category (ADHD adults [5]; 50, 100, 200 mg): benign | QT Baseline (ADHD adults [5]; betahistine 50 mg group): 416 ± 33 ms | QTc Baseline (ADHD adults [5]; betahistine 50 mg group): 416 ± 18 ms | QT 2 hours (ADHD adults [5]; betahistine 50 mg): 403 ± 26 ms | QTc 2 hours (ADHD adults [5]; betahistine 50 mg): 407 ± 18 ms | QT Baseline (ADHD adults [5]; betahistine 100 mg group): 412 ± 27 ms | QTc Baseline (ADHD adults [5]; betahistine 100 mg group): 409 ± 13 ms | QT 2 hours (ADHD adults [5]; betahistine 100 mg): 395 ± 37 ms | QTc 2 hours (ADHD adults [5]; betahistine 100 mg): 401 ± 14 ms | QT Baseline (ADHD adults [5]; betahistine 200 mg group): 403 ± 37 ms | QTc Baseline (ADHD adults [5]; betahistine 200 mg group): 410 ± 18 ms | QT 2 hours (ADHD adults [5]; betahistine 200 mg): 400 ± 34 ms | QTc 2 hours (ADHD adults [5]; betahistine 200 mg): 405 ± 17 ms | QT and rate corrected QTc (Bazett's) change from baseline (ADHD adults [5]; betahistine 50, 100, 200 mg vs placebo (FIG. 1)): No clinically significant change | Abnormal ECGs, clinical significance (ADHD adults [5]; two subjects abnormal but NCS at 2 hours (200 mg, 50 mg)): no abnormal ECGs were read as clinically significant | AEs judged possibly related to study drug ([6]; human): 21/39 | AEs judged probably related to study drug ([6]; human): 3/39 | AEs rated as moderate in severity ([6]; human): 16/39 | Total adverse events ([6]; human): 39 | AEs reported as severe [6]: No AEs were reported as severe | Relationship between frequency or severity of AEs and dose [6]: no relationship | Heart rate and blood pressure effects (ADHD adults [7]; 50, 100, 200 mg, not dose dependent): minimal and judged as not clinically significant | Change in systolic blood pressure from baseline (ADHD adults [7]; betahistine 50, 100, 200 mg vs placebo (FIG. 2)): No clinically significant change | Change in diastolic blood pressure from baseline (ADHD adults [7]; betahistine 50, 100, 200 mg vs placebo (FIG. 3)): No clinically significant change | Effect on airway compliance and/or pulmonary function (ADHD adults [8]; FEV 25-75 at four hour post-dose): minimal or no effect | Change in forced expiratory volume in 1 second (FEV) from baseline (ADHD adults [8]; betahistine vs placebo (FIG. 4)): No clinically significant change | APRIME_CPT, Treatment effect, Pr > F (ADHD adults [9]; [17]): 0.0254 | BPRIME_CPT, Treatment effect, Pr > F (ADHD adults [9]; [17]): 0.0045 | APRIME_CPT, Treatment effect, F Value (ADHD adults [9]; [18]): 3.59 | BPRIME_CPT, Treatment effect, F Value (ADHD adults [9]; [18]): 5.38 | Effect on attention (CPT sensitivity and inhibition) (ADHD adults [9]; adults with ADHD, single doses up to 200 mg): improves attention | CPT A prime, effect vs placebo (ADHD adults [9]; betahistine vs placebo): demonstrated a treatment effect compared to placebo | Satiety Quotient - 2 hrs, Treatment effect, Pr > F (ADHD adults [10]): 0.4475 | Satiety Quotient - 4 hrs, Treatment effect, Pr > F (ADHD adults [10]): 0.8360 | Satiety Quotient - 2 hrs, Treatment effect, F Value (ADHD adults [10]; DF 3/21): 0.92 | Satiety Quotient - 4 hrs, Treatment effect, F Value (ADHD adults [10]; DF 3/21): 0.28 | Cortisol response to stress (HPA axis [11]): increases the cortisol response to stress | Effect on decrease in cortisol after dexamethasone administration (HPA axis [11]): counteracts the decrease in cortisol | Biologic half-life, mean [12]: 5 hours | Biologic half-life, variability [12]: 2-11 hours | Effects on arousal and vigilance (healthy volunteers; 32 mg dose vs placebo): no effect; also recorded: no noticeable CNS-stimulating effects | Effects on arousal and vigilance (healthy volunteers; single dose 64 mg vs placebo): greater than those observed with placebo; also recorded: only mild stimulant-like effects | Biologic effects on brain histamine or histamine H3 receptors ([4]; roughly the human dose (48 mg/day)): no biologic effects | Eating behavior (rats): decrease eating behavior in rats in a dose-dependent manner | CNS concentration relative to plasma levels [13]: approximately half | Symptoms of fatigue [14]: statistically significant reduction | Motor activity and cognitive functioning [15]: increase motor activity and improve cognitive functioning

CNCCc1ccccn1.CS(=O)(=O)O.CS(=O)(=O)O [betahistine mesylate]
Bioavailability ([12]; oral): less than 1%
